The test has as its system B cell receptor-mediated activation of B cells in human blood. In words: Inhibition of B cell activation in whole blood measured by CD69 expression. Particulars: anti-IgM stimulation 20 h, concentration decreasing by 50% the percentage of CD69-positive cells that are also CD20-positive. It counts as cell-based. How it is done: Inhibition of B Cell Activation in Whole Blood Measured by CD69 Expression
A procedure to test the ability of Btk inhibitors to suppress B cell receptor-mediated activation of B cells in human blood is as follows:
Human whole blood (HWB) is obtained from healthy volunteers, with the following restrictions: 24 hr drug-free, non-smokers. Blood is collected by venipuncture into Vacutainer tubes anticoagulated with sodium heparin. Test compounds are diluted to ten times the desired starting drug concentration in PBS (20×), followed by three-fold serial dilutions in 10% DMSO in PBS to produce a nine point dose-response curve. 5.5 μl of each compound dilution is added in duplicate to a 2 mL 96-well V bottom plate (Analytical Sales and Services, #59623-23); 5.5 μl of 10% DMSO in PBS is added to control and no-stimulus wells. HWB ([…] is added to each well, and after mixing the plates are incubated at 37 C, 5% CO2, 100% humidity for 30 minutes. Goat F(ab′)2 anti-human IgM (Southern Biotech, #2022-14) (10 μl of a 500 μ/mL solution, 50 μg/mL final concentration) is added to each well (except the no-stimulus wells) with mixing and the plates are incubated for an additional 20 hours. At the end of the 20 hour incubation, samples are incubated with florescent-probe-labeled anti-bodies (15 ul PE Mouse anti-Human CD20, BD Pharmingen, #555623, and/or 20 ul APC Mouse anti-Human CD69, BD Pharmingen #555533) for 30 minutes, at 37 C, 5% CO2, 100% humidity. Included are induced control, unstained and single stains for compensation adjustments and initial voltage settings. Samples are then lysed with 1 mL of 1× Pharmingen Lyse Buffer (BD Pharmingen #555899), and plates are centrifuged at 1800 rpm for 5 minutes. Supernatants are removed via suction and the remaining pellets are lysed again with another 1 mL of 1× Pharmingen Lyse Buffer, and plates are spun down as before. Supernatants are aspirated and remaining pellets are washed in FACs buffer (PBS+1% FBS). After a final spin, the supernantants are removed and pellets are resuspended in 180 ul of FACs buffer. Samples are transferred to a 96 well plate suitable to be run on the HTS 96 well system on the BD LSR II flow cytometer. Using appropriate excitation and emission wavelengths for the fluorophores used, data are acquired and percent positive cell values are obtained using Cell Quest Software. Results are initially analyzed by FACS analysis software (Flow Jo). […] The IC50 values are calculated using XLfit software version 3, equation 201.

Usually IC50 stands for the midpoint of a concentration-inhibition curve. Low values mean inhibition by little substance, high ones a need for much substance. The compound `Cn1cc(-c2cccc(N3CCNc4cc(C5CC5)ccc4C3=O)c2CO)cc(Nc2ccc(C(=O)N3CCOCC3)cn2)c1=O` [Compound I-1, 8-Cyclopropyl-4-(2-hydroxymethyl-3-{1-methyl-5-[5-(morpholine-4-carbonyl)-pyridin-2-ylamino]-6-oxo-1,6-dihydro-pyridin-3-yl}-phenyl)-1,2,3,4-tetrahydro-benzo[e][1,4]diazepin-5-one] returned a concentration for half-maximal inhibition (IC50) of 111 nM.

The compound `Cn1cc(-c2cccc(N3CCNc4cc(C5CC5)ccc4C3=O)c2CO)cc(Nc2ccc(N3CCOCC3)cn2)c1=O` [Compound I-2, 8-Cyclopropyl-4-{2-hydroxymethyl-3-[1-methyl-5-(5-morpholin-4-yl-pyridin-2-ylamino)-6-oxo-1,6-dihydro-pyridin-3-yl]-phenyl}-1,2,3,4-tetrahydro-benzo[e][1,4]diazepin-5-one] gave a concentration for half-maximal inhibition (IC50) of 96 nM.

For `Cn1cc(-c2cccc(N3CCNc4cc(C(C)(C)C)ccc4C3=O)c2CO)cc(Nc2ccc(C(=O)N3CCOCC3)cn2)c1=O` [Compound I-3, 8-tert-Butyl-4-(2-hydroxymethyl-3-{1-methyl-5-[5-(morpholine-4-carbonyl)-pyridin-2-ylamino]-6-oxo-1,6-dihydro-pyridin-3-yl}-phenyl)-1,2,3,4-tetrahydro-benzo[e][1,4]diazepin-5-one], the concentration for half-maximal inhibition (IC50) stood at 18 nM.

`CN1CCN(c2ccc(Nc3cc(-c4cccc(N5CCNc6cc(C(C)(C)C)ccc6C5=O)c4CO)cn(C)c3=O)nc2)CC1` [Compound I-4, 8-tert-Butyl-4-(2-hydroxymethyl-3-{1-methyl-5-[5-(4-methyl-piperazin-1-yl)-pyridin-2-ylamino]-6-oxo-1,6-dihydro-pyridin-3-yl}-phenyl)-1,2,3,4-tetrahydro-benzo[e][1,4]diazepin-5-one] gave a half-maximal inhibitory concentration (IC50) of 38 nM.

In turn, `Cn1cc(-c2cccc(N3CCOc4cc(C(C)(C)C)ccc4C3=O)c2CO)cc(Nc2ccc(C(=O)N3CCOCC3)cn2)c1=O` [II-1, 8-tert-Butyl-4-(2-hydroxymethyl-3-{1-methyl-5-[5-(morpholine-4-carbonyl)-pyridin-2-ylamino]-6-oxo-1,6-dihydro-pyridin-3-yl}-phenyl)-3,4-dihydro-2H-benzo[f][1,4]oxazepin-5-one] yielded an IC50 of 16 nM.

`CN1CCN(c2ccc(Nc3cc(-c4cccc(N5CCOc6cc(C(C)(C)C)ccc6C5=O)c4CO)cn(C)c3=O)nc2)CC1` [II-2, 8-tert-Butyl-4-(2-hydroxymethyl-3-{1-methyl-5-[5-(4-methyl-piperazin-1-yl)-pyridin-2-ylamino]-6-oxo-1,6-dihydro-pyridin-3-yl}-phenyl)-3,4-dihydro-2H-benzo[f][1,4]oxazepin-5-one] had a half-inhibitory concentration (IC50) of 4 nM.

Compound `CCN1CCN(c2ccc(Nc3cc(-c4cccc(N5CCOc6cc(C(C)(C)C)ccc6C5=O)c4CO)cn(C)c3=O)nc2)CC1` [II-3, 8-tert-Butyl-4-(3-{5-[5-(4-ethyl-piperazin-1-yl)-pyridin-2-ylamino]-1-methyl-6-oxo-1,6-dihydro-pyridin-3-yl}-2-hydroxymethyl-phenyl)-3,4-dihydro-2H-benzo[f][1,4]oxazepin-5-one] returned an IC50 of 8 nM.

The record behind these values is patent publication US8318719B2, “Inhibitors of Bruton's tyrosine kinase” (Roche Palo Alto LLC, priority 2009, dated 2012).
